Common to all, as to assay type: cell-based
In one assay the target is T1, GPR6 (Homo sapiens, UniProt P46095).
T1 construct: expressed in transfected cells; host or cells: CHO cells
Nature of the assay: GPR6 antagonist functional cAMP assay (LANCE Ultra cAMP TR-FRET, CHO cells stably expressing GPR6). The conditions noted are these: procedure of Example 24. Put shortly:
(§1)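 Read-out was TR-FRET cAMP signal at 665 nm after 1 h at room temperature, following 45 min compound exposure at 37 °C. Assay buffer contained 0.1% BSA and 150 μM Ro 20-1724. Antagonist IC50s were fitted with a 4-parameter logistic against DMSO and reference controls.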

Another assay concerns the target T2, GPR3 (Homo sapiens, UniProt P46089).
T2 construct: expressed in transfected cells; host or cells: CHO cells
Nature of the assay: GPR3 antagonist functional cAMP assay (LANCE Ultra cAMP TR-FRET, CHO cells stably expressing GPR3). The conditions noted are these: procedure of Example 24. The method, boiled down:
as §1

In a further assay the target is T3, hERG (Homo sapiens, UniProt Q12809).
T3 construct: expressed in transfected cells; host or cells: HEK293
T3 sequence (Q12809 whole entry): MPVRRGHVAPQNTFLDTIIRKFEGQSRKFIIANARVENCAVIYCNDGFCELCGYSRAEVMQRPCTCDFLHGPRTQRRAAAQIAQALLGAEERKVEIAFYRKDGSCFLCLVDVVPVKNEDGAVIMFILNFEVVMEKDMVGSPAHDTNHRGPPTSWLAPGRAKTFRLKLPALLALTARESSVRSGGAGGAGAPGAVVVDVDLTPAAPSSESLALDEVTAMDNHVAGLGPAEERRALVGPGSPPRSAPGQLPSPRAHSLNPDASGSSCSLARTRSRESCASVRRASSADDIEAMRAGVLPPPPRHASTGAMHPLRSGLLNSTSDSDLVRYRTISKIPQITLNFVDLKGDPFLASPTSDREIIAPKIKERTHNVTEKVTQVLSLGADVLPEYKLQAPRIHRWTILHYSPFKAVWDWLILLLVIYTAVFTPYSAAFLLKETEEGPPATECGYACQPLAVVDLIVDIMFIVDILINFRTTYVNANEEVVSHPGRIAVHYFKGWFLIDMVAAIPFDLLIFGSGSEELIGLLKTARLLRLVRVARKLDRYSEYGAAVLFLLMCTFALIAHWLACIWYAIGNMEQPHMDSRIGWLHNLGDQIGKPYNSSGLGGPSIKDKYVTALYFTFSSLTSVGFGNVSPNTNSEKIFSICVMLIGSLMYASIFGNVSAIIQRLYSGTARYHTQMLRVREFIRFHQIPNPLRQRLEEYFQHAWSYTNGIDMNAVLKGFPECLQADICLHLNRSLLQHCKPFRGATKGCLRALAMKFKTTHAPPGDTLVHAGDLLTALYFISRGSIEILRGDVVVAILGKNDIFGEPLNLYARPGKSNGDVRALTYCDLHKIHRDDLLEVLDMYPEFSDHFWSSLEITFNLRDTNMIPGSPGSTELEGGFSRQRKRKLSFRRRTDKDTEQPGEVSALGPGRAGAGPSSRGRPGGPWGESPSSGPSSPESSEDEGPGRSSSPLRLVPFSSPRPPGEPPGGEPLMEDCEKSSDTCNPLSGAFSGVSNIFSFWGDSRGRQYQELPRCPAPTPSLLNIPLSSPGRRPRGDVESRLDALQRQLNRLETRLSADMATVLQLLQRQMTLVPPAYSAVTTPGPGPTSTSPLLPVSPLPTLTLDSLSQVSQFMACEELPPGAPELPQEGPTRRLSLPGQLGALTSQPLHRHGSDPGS
Nature of the assay: hERG assay (whole-cell manual patch clamp, stably-transfected HEK293/hERG cells). The conditions noted are these: tail current, test concentrations 0.1-30 μM, read-out: hERG Assay GMean IC50. How it is done: Stably-transfected HEK293/hERG cells were seeded on poly-ornithine coated glass coverslip and incubated 3-24 h in 35 mm dishes before transferring to the recording chamber. The recording chamber on the stage of a Nikon inverted microscope is continuously perfused with extracellular solution (1-1.5 ml/min). Electrodes were pulled, polished and filled with intracellular solution (tip resistance ˜3-5MΩ). After establishing a tight seal (resistances 1GΩ) between pipette tip and cell membrane, a brief suction is applied to rupture the patched membrane to establish the whole-cell patch clamp configuration. Cells are voltage clamped at −80 mV. The cell was first depolarized to +40 mV for 2s to activate hERG current, and then clamped to −40 mV for 3s to record a tail current. Test articles in various concentrations controlled by a voltage command 8 pinch valve superfusion system were delivered to the proximity of the test cell to record hERG current changes under different conditions with recording done within 30 min.
Intracellular solution (in mM): 130 KCl, 1.0 MgCl2, 5.0 EGTA, 10 HEPES, 5.0 Mg-ATP; adjust pH to 7.25 with 1M KOH; osmolarity approximately at 280 mOsm. Extracellular solution (in mM): 137 NaCl, 1.8 CaCl2, 1.0 MgCl2, 4.0 KCl, 10 Glucose, 10 HEPES; adjust pH to 7.4 with 1 M NaOH; osmolarity approximately at 295 mOsm. Original compound was dissolved in 100% DMSO, then serial diluted with DMSO to respective 1000× of test concentration to make DMSO sub-stocks. The DMSO sub-stocks were diluted 1000 fold to testing solutions (0.1, 0.3, 1, 3, 10, and 30 μM) using extracellular solution. Rapid exposure to test compound was achieved by utilizing a multichannel solenoid-operated flow system. Testing compounds were sequentially applied in increasing order of concentrations after initial application of vehicle solution on EPC-10 manual patch clamping device with the following: • Amplifier: HEKA EPC-10 USB • Nikon Ti-S Inverted Microscope • MP-285/R micromanipulator system • DAD-8VCPP voltage command Pinch valve superfusion system • TMC Shock Absorption Platform • Peristaltic Pump • Sutter Puller • Vapor pressure osmometer • Temperature controller

Consider one compound from patent publication US20260042755A1, “GPR6 INVERSE AGONISTS” (MapLight Therapeutics, Inc., priority 2022, published 2026).

T1 sequence (P46095 whole entry): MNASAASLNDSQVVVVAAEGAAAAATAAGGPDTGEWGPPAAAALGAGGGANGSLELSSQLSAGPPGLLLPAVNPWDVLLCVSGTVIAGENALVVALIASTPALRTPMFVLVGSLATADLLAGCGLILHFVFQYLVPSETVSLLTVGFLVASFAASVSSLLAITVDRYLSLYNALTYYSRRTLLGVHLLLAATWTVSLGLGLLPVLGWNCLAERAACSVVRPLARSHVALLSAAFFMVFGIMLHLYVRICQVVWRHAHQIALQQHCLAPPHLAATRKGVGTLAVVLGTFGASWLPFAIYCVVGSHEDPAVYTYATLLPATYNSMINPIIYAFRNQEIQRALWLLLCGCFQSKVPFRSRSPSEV
T2 sequence (P46089 whole entry, species assumed): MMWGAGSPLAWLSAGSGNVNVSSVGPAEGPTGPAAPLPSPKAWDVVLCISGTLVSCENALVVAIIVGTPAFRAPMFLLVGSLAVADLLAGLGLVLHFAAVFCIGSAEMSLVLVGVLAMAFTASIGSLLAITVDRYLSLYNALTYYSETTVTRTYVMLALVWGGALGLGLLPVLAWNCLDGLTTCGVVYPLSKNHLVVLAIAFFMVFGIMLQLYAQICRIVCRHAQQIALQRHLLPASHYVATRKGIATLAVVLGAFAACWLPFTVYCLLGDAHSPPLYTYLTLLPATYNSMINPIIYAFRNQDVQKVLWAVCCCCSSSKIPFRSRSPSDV

With `CC(C)(O)[C@](C)(O)c1cc2nc(-c3cnn(CF)c3)c(N3CCN(Cc4ccccc4F)CC3)nc2cn1` (single isomer, unassigned) [Compound 716], the half-inhibitory concentration (IC50) at GPR6 was 0.1 to 1 µM; on GPR3 it was 1 to 30 µM; at hERG it was 24.3 µM.
